{"source": "ChEMBL document CHEMBL1201862", "about": "“PubChem BioAssay data set” (2004)", "key": {"[1]": {"assay": "cytotoxicity in COV434 cells, dose response, cytotoxicity control for PAX8 inhibitor project, cell-based, plate reader, dry powder, SA7 (AID 743145)", "assay_type": "functional"}, "[2]": {"molecular_target": "T1, Heat shock factor protein 1 (Mus musculus, UniProt P38532)", "T1 sequence (P38532 whole entry)": "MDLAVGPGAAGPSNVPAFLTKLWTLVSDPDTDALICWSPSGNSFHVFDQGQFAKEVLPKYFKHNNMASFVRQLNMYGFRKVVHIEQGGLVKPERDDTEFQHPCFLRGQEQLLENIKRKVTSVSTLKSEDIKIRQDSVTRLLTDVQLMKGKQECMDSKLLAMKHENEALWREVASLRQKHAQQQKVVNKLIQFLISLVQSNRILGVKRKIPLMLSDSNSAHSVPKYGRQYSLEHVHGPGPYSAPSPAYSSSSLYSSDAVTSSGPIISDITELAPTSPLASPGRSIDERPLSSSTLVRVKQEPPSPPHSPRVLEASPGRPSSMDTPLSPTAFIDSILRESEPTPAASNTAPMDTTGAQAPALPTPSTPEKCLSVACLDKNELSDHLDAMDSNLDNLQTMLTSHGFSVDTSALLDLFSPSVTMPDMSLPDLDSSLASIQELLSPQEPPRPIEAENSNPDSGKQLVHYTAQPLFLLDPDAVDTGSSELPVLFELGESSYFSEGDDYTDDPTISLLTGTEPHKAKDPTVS", "assay": "inhibition of MG132-induced HSE-luciferase signal, confirmation, cell-based, NIH3T3, luminescence, dose retest (AID 2382);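 also: NIH3T3 fibroblasts with HSF1-driven luciferase reporter stressed by proteasome inhibitor MG132; luminescence from HSF1-driven luciferase expression after 8 hours of MG132 stress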", "assay_type": "functional"}, "[3]": {"assay": "LGR2 antagonists, dose response, cell-based, HEK293, CRE-luciferase reporter, cherry pick, set 2 (AID 743343);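 also: transfected cells were stimulated with diluted bursicon conditioned medium after compound addition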", "assay_type": "functional"}, "[4]": {"assay": "PAX5 activity inhibitors, dose response, selectivity assay for PAX8 inhibitor project, cell-based, plate reader, dry powder samples (AID 743047);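 also: HEK293 cells carrying a Pax5 driven CD19 promoter luciferase reporter; potency of inhibitors that lower reporter luminescence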", "assay_type": "functional"}, "Jurkat": {"test_system": "Jurkat", "assay": "antigen receptor-induced NF-kB inhibitors, dose response, Jurkat, luciferase reporter, luminescence, B- and T-cell (AID 489004);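 also: NF-kB luciferase reporter Jurkat cells stimulated with PMA plus ionomycin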", "assay_type": "functional, cell-based", "settings": "Homo sapiens"}, "[5]": {"molecular_target": "T2, Microphthalmia-associated transcription factor (Homo sapiens, UniProt O75030)", "T2 sequence (O75030 whole entry)": "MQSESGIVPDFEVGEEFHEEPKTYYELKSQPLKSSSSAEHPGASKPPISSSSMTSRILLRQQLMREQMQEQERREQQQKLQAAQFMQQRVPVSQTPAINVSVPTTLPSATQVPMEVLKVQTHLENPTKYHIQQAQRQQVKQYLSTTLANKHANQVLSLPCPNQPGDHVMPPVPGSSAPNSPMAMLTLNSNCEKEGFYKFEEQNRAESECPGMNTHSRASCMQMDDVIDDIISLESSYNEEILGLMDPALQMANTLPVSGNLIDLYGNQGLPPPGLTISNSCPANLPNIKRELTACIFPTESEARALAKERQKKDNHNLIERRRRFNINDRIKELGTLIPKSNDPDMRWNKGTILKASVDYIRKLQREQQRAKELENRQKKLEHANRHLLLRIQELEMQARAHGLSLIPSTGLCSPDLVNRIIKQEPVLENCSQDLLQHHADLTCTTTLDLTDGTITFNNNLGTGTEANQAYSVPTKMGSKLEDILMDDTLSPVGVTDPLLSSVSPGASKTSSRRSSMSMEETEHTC", "assay": "TRPM1 promoter luciferase signal decrease, dose response, MITF inhibitor project, cell-based, SK-MEL-5, cherry-picked, set 3 (AID 493073)", "assay_type": "functional"}, "A-375 [6]": {"test_system": "A-375", "assay": "A375 melanoma cell viability reduction, dose response, counter-screen for MITF modulator project, cherry-pick samples, set 2 (AID 540335)", "assay_type": "functional, cell-based", "settings": "Homo sapiens"}, "[7]": {"assay": "cytotoxicity dependent on PAX8, dose response, cell-based, plate reader, dry powder (AID 743049)", "assay_type": "functional"}, "[8]": {"assay": "HEK293 cell cytotoxicity, dose response, cytotoxicity control, plate reader, cherry-picked samples (AID 743446)", "assay_type": "functional, cell-based"}, "[9]": {"assay": "cytotoxicity in OV-90 ovarian cancer cells, dose response, PAX8 inhibitor project, cell-based, plate reader, dry powder, SA8 (AID 743149)", "assay_type": "functional"}, "[10]": {"assay": "MC4R antagonists, dose response, counter-screen for LGR2 antagonist project, cell-based, plate reader, cherry pick (AID 743444);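 also: transfected HEK 293 cells stimulated with alpha-MSH peptide; potency of inhibitors of the alpha-MSH evoked signal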", "assay_type": "functional"}, "[11]": {"assay": "HepG2 cell cytotoxicity, dose response, cytotoxicity control, plate reader, cherry-pick, antagonist series (AID 743416)", "assay_type": "functional, cell-based"}, "[12]": {"assay": "cytotoxicity in COV362 ovarian cancer cells, dose response, cytotoxicity control for PAX8 inhibitor project, cell-based, plate reader, dry powder, SA12 (AID 743144)", "assay_type": "functional"}, "Paired box protein Pax-8": {"molecular_target": "Paired box protein Pax-8 (Homo sapiens, UniProt Q06710)", "sequence (Q06710 whole entry)": "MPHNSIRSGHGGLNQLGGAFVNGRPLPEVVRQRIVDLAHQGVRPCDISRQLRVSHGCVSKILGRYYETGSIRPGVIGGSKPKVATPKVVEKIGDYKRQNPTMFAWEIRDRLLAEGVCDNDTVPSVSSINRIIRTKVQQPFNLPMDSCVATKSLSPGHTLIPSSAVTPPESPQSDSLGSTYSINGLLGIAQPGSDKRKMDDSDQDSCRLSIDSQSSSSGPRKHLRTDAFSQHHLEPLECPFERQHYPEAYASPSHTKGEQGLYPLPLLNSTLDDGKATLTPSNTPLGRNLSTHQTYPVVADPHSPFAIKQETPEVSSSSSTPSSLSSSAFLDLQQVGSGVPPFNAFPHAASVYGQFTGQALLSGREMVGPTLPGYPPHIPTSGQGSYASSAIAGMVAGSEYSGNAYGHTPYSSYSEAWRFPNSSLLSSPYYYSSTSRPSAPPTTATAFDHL", "assay": "inhibitors of PAX8-driven TPO luciferase reporter, dose response, RMG-I cells, cherry-pick (AID 687027)", "assay_type": "functional, cell-based"}, "[13]": {"assay": "IGROV1 ovarian cancer cell cytotoxicity, dose response, PAX8 inhibitor project, plate reader, dry powder samples (AID 743043)", "assay_type": "functional, cell-based", "settings": "IGROV-1"}, "[14]": {"assay": "PAX2 cell-based inhibition, dose response, selectivity assay for PAX8 inhibitor project, plate reader, dry powder samples (AID 743048);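 also: HEK293 cells carrying a WT1 promoter luciferase reporter driven by expressed Pax2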", "assay_type": "functional"}, "A-375 [15]": {"test_system": "A-375", "assay": "MITF: Counter assay: A375 proliferation Measured in Cell-Based System Using Plate Reader - 2084-03_Inhibitor_Dose_DryPowder_Activity. [Related pubchem assays (depositor defined):AID488944]", "assay_type": "functional", "settings": "Homo sapiens"}, "[16]": {"assay": "cytotoxicity in HEK-293T NF-kB-Luc cells, dose response, cytotoxicity control for B/T-cell NF-kB inhibitor project, cell-based, uHTS hits (AID 489019);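 also: IC50 reflects cytotoxicity as loss of cell viability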", "assay_type": "functional"}, "[17]": {"molecular_target": "T3, Platelet-activating factor acetylhydrolase 2, cytoplasmic (Mus musculus, UniProt Q8VDG7)", "T3 sequence (Q8VDG7 whole entry)": "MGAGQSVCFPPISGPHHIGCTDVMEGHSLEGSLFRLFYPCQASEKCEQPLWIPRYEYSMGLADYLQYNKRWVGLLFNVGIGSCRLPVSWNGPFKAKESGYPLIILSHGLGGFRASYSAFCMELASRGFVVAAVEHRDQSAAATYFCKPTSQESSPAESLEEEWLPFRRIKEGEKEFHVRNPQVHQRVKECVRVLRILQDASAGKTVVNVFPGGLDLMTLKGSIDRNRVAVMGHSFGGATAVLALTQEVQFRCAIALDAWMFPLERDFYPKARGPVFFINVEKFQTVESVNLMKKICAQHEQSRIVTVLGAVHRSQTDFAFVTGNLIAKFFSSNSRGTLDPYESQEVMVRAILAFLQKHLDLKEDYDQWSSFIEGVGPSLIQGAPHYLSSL", "assay": "Late stage assay provider results from the probe development effort to identify inhibitors of PAFAH2: fluorescence-based cell-based gel-based Activity-Based Protein Profiling (ABPP) IC50. [Related pubchem assays (depositor defined):AID492956, AID492969, AID493030]", "assay_type": "functional"}, "[18]": {"molecular_target": "T3, Platelet-activating factor acetylhydrolase 2, cytoplasmic", "assay": "Late stage assay provider results from the probe development effort to identify inhibitors of PAFAH2: Fluorescence-based biochemical gel-based Activity-Based Protein Profiling (ABPP) IC50. [Related pubchem assays (depositor defined):AID492956, AID492969, AID493030]"}}, "note": "Activity calls are given as the source filed them.", "data": [{"compound": "O=C(/C=C/c1ccccc1)Nc1cccc(C(=O)O)c1", "values": [{"measurement": "AC50", "setting": "[1]", "value": "> 100 µM (inactive)"}, {"measurement": "EC50", "setting": "[2]", "value": "1.73 µM (active)"}, {"measurement": "AC50", "setting": "[3]", "value": "0.833 µM (active)"}, {"measurement": "AC50", "setting": "[4]", "value": "2.67 µM (active)"}, {"measurement": "IC50", "setting": "Jurkat", "value": "1.4 µM (active)"}, {"measurement": "AC50", "setting": "[5]", "value": "1.52 µM (active)"}, {"measurement": "AC50", "setting": "A-375 [6]", "value": "> 35 µM (active)"}, {"measurement": "AC50", "setting": "[7]", "value": "32.2 µM (active)"}, {"measurement": "AC50", "setting": "[8]", "value": "> 52 µM (inactive)"}, {"measurement": "AC50", "setting": "[9]", "value": "> 100 µM (inactive)"}, {"measurement": "AC50", "setting": "[10]", "value": "0.592 µM (active)"}, {"measurement": "AC50", "setting": "[11]", "value": "> 52 µM (inactive)"}, {"measurement": "AC50", "setting": "[12]", "value": "77.2 µM (active)"}, {"measurement": "AC50", "setting": "Paired box protein Pax-8", "value": "4.06 µM (active)"}, {"measurement": "AC50", "setting": "[13]", "value": "49 µM (active)"}, {"measurement": "AC50", "setting": "[14]", "value": "2.07 µM (active)"}, {"measurement": "AC50", "setting": "A-375 [15]", "value": "> 35 µM (active)"}, {"measurement": "IC50", "setting": "[16]", "value": "> 80 µM (inactive)"}]}, {"compound": "O=C(N1CCCC1)n1ncc(-c2ccc(-c3ccccc3)cc2)n1", "values": [{"measurement": "IC50", "setting": "[17]", "value": "170 µM (active)"}, {"measurement": "IC50", "setting": "[18]", "value": "0.003 µM (active)"}]}]}
